Publication PMC6408838, “Bioassay-guided isolation and identification of gametocytocidal compounds from Artemisia afra (Asteraceae)” (Malaria Journal, 2019)
Converted amounts (≈) assume the structure as drawn. “And” between values parts separate entries of the source, which are not always exact repeats. Equal values may be shown once. Read-outs that look alike come from different tables or passages of the source.

Legend:
[1] = system: late-stage gametocytes of Plasmodium falciparum (NF54 strain); assay: pLDH assay, late-stage gametocyte viability; format: cell-based; settings: 72 + 72 h pLDH assay; for IC50: Plasmodium falciparum, NF54, 72 h
Method: (§1) The chloroquine-sensitive P. falciparum (NF54 strain) was cultured as described by […] et al. […] Gametocytogenesis initiation, induction and gametocyte culturing was done as described by Reader et al.. […] Both methylene blue (MB) and artemisinin (ART) was used as gametocytocidal drug controls and chloroquine for asexual drug control. Assay data were normalized against untreated Plasmodium parasites and HepG2 cell controls. […] Data were analysed on Microsoft Excel and sigmoidal dose-response curves were plotted using GraphPad Prism (v5). […] Statistical analysis was carried out on GraphPad Prism (v5) using unpaired Student-t test with a level of significance of P < 0.05.

[2] = system: early-stage gametocytes (> 85% stage II–III) of P. falciparum (NF54 strain); assay: pLDH assay, early-stage gametocyte viability; format: cell-based, Plasmodium falciparum; settings: n = 3; for IC50 value, Early stage gametocytes: 1–2% gametocytaemia; for IC50: Plasmodium falciparum, NF54, 1–2% gametocytaemia
Method: as §1

[3] = system: intra-erythrocytic asexual P. falciparum (NF54 strain) parasites; assay: pLDH assay, intra-erythrocytic asexual parasites; format: cell-based, Plasmodium falciparum; settings: 1% parasitaemia; for IC50 value, Asexual stages: 72 h, n = 2; for IC50: Plasmodium falciparum, NF54, 72 h, n = 2, read-out: IC50 value, Asexual stages (converted)
Method: as §1

HepG2 cells = assay: LDH leakage cytotoxicity assay; format: cell-based; settings: for cytotoxicity (toxicity): HepG2, at 20 µg/ml; for In vitro cytotoxicity range: HepG2, concentrations of 2.5, 5, 10, and 20 µg/ml
Method: (§2) Cytotoxicity assays were assessed on the HepG2 cell line (20,000 cells/well) as previously described. […] was as used as cytotoxic positive control. Assay data were normalized against untreated Plasmodium parasites and HepG2 cell controls. […] Data were analysed on Microsoft Excel and sigmoidal dose-response curves were plotted using GraphPad Prism (v5). Unless otherwise stated, all data have been expressed as mean ± SEM (n ≥ 2, carried out in three technical repeats).

[4] = LDH leakage cytotoxicity assay; format: cell-based; settings: human, HepG2 cells; HepG2, LDH leakage, positive control, n = 3
Method: as §2

[5] = system: mature, stage-V gametocytes (> 90% stage V); set-up: method as in PMID 26749441; settings: > 90% stage V gametocytes; cited from earlier work
[6] = 1–2% gametocytaemia, n = 3, read-out: IC50 value, Late stage gametocytes
[7] = unpaired assays, n = 1, technical triplicate, 10-fold serial dilution, read-out: IC50, late-stage gametocytes (drug controls)

Row | SMILES | IC50 value, Late stage gametocytes ([1]; 1–2% gametocytaemia, n = 3) [µg/mL] | IC50 [1, 6] | IC50 value, Early stage gametocytes [2] [µg/mL] | IC50 [2] [µM] | IC50 value, Asexual stages [3] [µg/mL] | IC50 [3] | cytotoxicity (toxicity) (HepG2 cells) [%] | In vitro cytotoxicity range (HepG2 cells) | IC50 [1, 7] [µM] | also measured
1 | C=C1C(=O)O[C@H]2C1[C@@H](OC(C)=O)CC(=C)[C@]1(O)C=C[C@@](C)(O)[C@H]21 (stereo partly drawn) [Compound 1, 1α,4α-dihydroxybishopsolicepolide] | 2 | 6.3 µM | 5.6 ± 0.2 (≈ 17.5 µM) | 17.5 | 6.0 (≈ 18.7 µM) | < 10 µg/mL and 18.7 µM | < 10 | 0.03–9.47% | – | IC50 value, Late stage gametocytes ([1]; 1–2% gametocytaemia, n = 3, listed as 1α,4α-dihydroxybishopsolicepolide): < 10 µg/mL
2 | C=C1C(=O)O[C@H]2[C@H]1[C@@H](OC(C)=O)C[C@@](C)(O)[C@@]13O[C@@H]1[C@@H]1O[C@]1(C)[C@H]23 [Compound 2, yomogiartemin] | 5.3 | < 10 µg/mL and 15.8 µM | 4.4 ± 0.3 (≈ 13.1 µM) | 13.1 | 3.8 ± 1.2 (≈ 11.3 µM) | 11.3 µM | < 10 | 0.40–8.35% | – | IC50 value, Early stage gametocytes ([2]; listed as yomogiartemin): < 10 µg/mL; IC50 value, Asexual stages ([3]; listed as yomogiartemin): < 10 µg/mL
3 | CC[C@H]1CN2CCc3cc(OC)c(OC)cc3[C@@H]2C[C@@H]1C[C@H]1NCCc2cc(OC)c(OC)cc21 [Emetine, reference compound] | – | – | – | – | – | – | – | – | – | EC50 [4]: 4.7 µg/mL (≈ 9.78 µM); cytotoxicity (HepG2 cells; HepG2, 100 µM, positive control): > 50%
4 | CN(C)c1ccc2nc3ccc(=[N+](C)C)cc-3sc2c1 [Methylene blue, methylene blue, reference compound] | – | – | – | – | – | – | – | – | 0.031 | –
5 | C[C@@H]1CC[C@H]2[C@@H](C)C(=O)O[C@@H]3O[C@@]4(C)CC[C@@H]1[C@]32OO4 [artemisinin, reference compound] | – | – | – | – | – | – | – | – | 0.057 | IC50 [5]: > 12.5 µM
